# Measured values from patent publication US5719130A, “Anthracycline derivative having a trifluoromethylated sugar” (Zaidan Hojin Biseibutsu Kagaku Kenkyu Kai, priority 1994, dated 1998).
# How the values were obtained:
# Leukemia L-1210 cells [1] = experiment: Antitumor activity against leukemia L-1210 in CDF1 mice, 60-day observation (Test Example 1); format: in vivo, mouse; details: for % Increase in life-span (T/C, %): 9 days, 60 d observation, '>' = at least one of four mice survived 60 days
# Method: Thus, to evaluate the antitumor effects of the new compounds of this invention against experimental tumors in animals, CDF1 mice (four mice per group) were intraperitoneally transplanted with cells of Leukemia L-1210 at an amount of 1×10^5 cells/mouse. Since an elapsed time of 24 hours from the transplantation of the leukemia cells, a test compound according to this invention was administered intraperitoneally to the mice under test for 9 consecutive days once per day. […] While, mice of the control group (the untreated group) were administered with only physiological saline after the transplantation of the L-1210 cells. During the observation period, the numbers of the surviving mice in the treated group and in the control group were counted, and the mean survival days of mice in the treated group and in the control group were then calculated. From the mean survival day (C) of the untreated mice of the control group and the mean survival day (T) of the treated mice of the treated group, there were evaluated percentages (%) of the increase in the life-span of the treated mice, as T/C %. For a comparison purpose, 7-O-(2,6-dideoxy-2-fluoro-α-L-talopyranosyl)daunomycinone (abbreviation: FT-DM); 7-O-(2,6-dideoxy-2-fluoro-α-L-talopyranosyl)adriamycinone (abbreviation: FT-ADM); daunomycin and adriamycin were also tested in the same manner as above. Incidentally, the mean survival day of mice of the control group (the untreated group) was amounting to 8 to 9 days, and the mean survival day of mice of the comparative groups having received the administration of adriamycin was varying dependently on the dosage of adriamycin.
# [2] = tested on: adriamycin-resistant P388 cells (P388/ADR); experiment: In vitro inhibition of growth of adriamycin-resistant P388 cells, 72 hours (Test Example 3); format: cell-based, mouse; details: Mus musculus; P388/ADR, 72 hours
# Method: (§1) Furthermore, in order to estimate the antitumor activities of Compound (a) and Compound (b) of this invention represented by the general formula (I), as well as the adriamycinone derivative represented by the formula (II) (namely, Compound (c) of this invention), some "in vitro" tests for inhibiting proliferation of cancer cells were conducted as shown below.
# (§2) The above-mentioned Compound (a), Compound (b) or Compound (c) according to this invention were added at varying concentrations to mouse leukemia, P388 cells or adriamycin-resistant P388 cells (P388/ADR) which had been incubated in test tubes containing an appropriate culture medium. The incubation of the tumor cells were then continued for 72 hours from the addition of the test compound, and determination was made to evaluate such concentrations of the test compound which could inhibit the growth of the leukemia cells by 50% (namely, IC50' ng/ml). FT-DM, FT-ADM and adriamycin (as the hydrochloride) were used as comparative compounds and were tested in the same manner as above.
# P388 cells = experiment: In vitro inhibition of growth of P388 cells, 72 hours (Test Example 3); format: cell-based, mouse; details: Mus musculus, P388, 72 h
# Method: as §1, §2
# Leukemia L-1210 cells [3] = experiment: Antitumor activity against leukemia L-1210 in CDF1 mice, 30-day observation (Test Example 2); format: in vivo, mouse; details: 9 days, 30 d observation, '>' = at least one of four mice survived 30 days
# Method: Since an elapsed time of 24 hours from the transplantation of the leukemia cells, Compound (c) of this invention was administered intraperitoneally to the mice under test for 9 consecutive days once per day. […] While, mice of the control group (the untreated group) were administered with only physiological saline after the transplantation of the L-1210 cells. During the observation period, the numbers of the surviving mice in the treated group and the control group were counted, and the mean survival days of mice in the treated group and in the control group were then calculated. From the mean survival day (C) of the untreated mice of the control group and the mean survival day (T) of the treated mice of the treated group, there were evaluated percentages (%) of the increase in the life-span of the treated mice as T/C %. For a comparison purpose, adriamycin was also tested in the same manner as above.
# [4] = clinical treatments, patients; cited from earlier work
smiles,measurement,setting,value
"COc1cccc2c1C(=O)c1c(O)c3c(c(O)c1C2=O)C[C@@](O)(C(=O)CO)C[C@@H]3O[C@H]1C[C@H](N)[C@H](O)[C@H](C)O1 [Adriamycin, adriamycin]","% Increase in life-span (T/C, %)",Leukemia L-1210 cells [1]; 0.15 mg/kg/day i.p.,140%
same,"% Increase in life-span (T/C, %)",Leukemia L-1210 cells [1]; 0.3 mg/kg/day i.p.,132%
same,"% Increase in life-span (T/C, %)",Leukemia L-1210 cells [1]; 0.6 mg/kg/day i.p.,208%
same,"% Increase in life-span (T/C, %)",Leukemia L-1210 cells [1]; 1.25 mg/kg/day i.p.,330%
same,"% Increase in life-span (T/C, %)",Leukemia L-1210 cells [1]; 2.5 mg/kg/day i.p.,273%
same,"percentages (%) of increase in life-span (T/C, %)","Leukemia L-1210 cells [1]; 2.5 mg/kg/day to 5 mg/kg/day, about / approximately at maximum",approximately 330%
same,"% Increase in life-span (T/C, %)",Leukemia L-1210 cells [1]; 5 mg/kg/day i.p.,177%
same,development of toxicity (in words),"Leukemia L-1210 cells [1]; 2.5 to 5 mg/kg/day for daunomycin, adriamycin, 0.3 to 1.25 mg/kg/day for Compound (b), low dosages for formula (I)",accompanied by development of toxicity
same,IC50,[2],0.51 µg/mL
same,IC50,P388 cells,0.017 µg/mL
same,"% Increase in life-span (T/C, %)",Leukemia L-1210 cells [3]; 0.15 mg/kg/day i.p.,140%
same,"% Increase in life-span (T/C, %)",Leukemia L-1210 cells [3]; 0.3 mg/kg/day i.p.,132%
same,"% Increase in life-span (T/C, %)",Leukemia L-1210 cells [3]; 0.6 mg/kg/day i.p.,208%
same,"% Increase in life-span (T/C, %)",Leukemia L-1210 cells [3]; 1.25 mg/kg/day i.p.,330%
same,"% Increase in life-span (T/C, %)",Leukemia L-1210 cells [3]; 2.5 mg/kg/day i.p.,273%
same,"% Increase in life-span (T/C, %)",Leukemia L-1210 cells [3]; 5 mg/kg/day i.p.,177%
same,serious side-effects (in words),[4],"serious side-effects such as leukocytopenia, alopecia, myocardiopathy and others"
